Laboratory results reported in the NIST ThermoML archive (doi:10.1021/acs.jced.8b01205).
± gives the expanded uncertainty stated by the source.

Key:
[1] = Molar enthalpy of transition or fusion; conditions: Crystal; DSC
[2] = Crystal; DSC

N#CCC(N)=O [2-cyanoethanamide]
Molar enthalpy of transition or fusion [1]: 5.41 ± 0.43 kcal/mol | Triple point temperature [2]: 392.84 ± 1.2 K
